Experimental findings from patent US10501514B2, “Cyclic galanin-analogs and uses thereof” (LanthioPep B.V., priority 2015, dated 2019) are described below.

Where two headings read alike, the source gives them in different places.

Test [1] deals with T1, GalR2 (Homo sapiens, UniProt O43603).
T1 construct: expressed in transfected cells; host or cells: HEK293
T1 sequence (O43603 1-387): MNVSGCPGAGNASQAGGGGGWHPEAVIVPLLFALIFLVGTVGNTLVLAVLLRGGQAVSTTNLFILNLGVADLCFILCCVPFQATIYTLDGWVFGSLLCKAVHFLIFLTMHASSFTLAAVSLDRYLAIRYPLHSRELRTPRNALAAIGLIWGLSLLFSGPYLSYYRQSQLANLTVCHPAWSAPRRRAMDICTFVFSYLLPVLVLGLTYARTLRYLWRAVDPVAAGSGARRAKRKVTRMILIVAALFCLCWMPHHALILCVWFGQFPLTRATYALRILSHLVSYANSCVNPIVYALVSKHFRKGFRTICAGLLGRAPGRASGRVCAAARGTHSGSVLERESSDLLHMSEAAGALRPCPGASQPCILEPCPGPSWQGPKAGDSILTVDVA
The format is cell-based. As for the experimental part: (§1) ND indicates ‘not determined’.
Peptide was dissolved in 0.3% ammonia. […] Different isomers were purified and lyophilized.

Test [2] concerns the target T2, GalR1 (Homo sapiens, UniProt P47211).
T2 sequence (P47211 1-349): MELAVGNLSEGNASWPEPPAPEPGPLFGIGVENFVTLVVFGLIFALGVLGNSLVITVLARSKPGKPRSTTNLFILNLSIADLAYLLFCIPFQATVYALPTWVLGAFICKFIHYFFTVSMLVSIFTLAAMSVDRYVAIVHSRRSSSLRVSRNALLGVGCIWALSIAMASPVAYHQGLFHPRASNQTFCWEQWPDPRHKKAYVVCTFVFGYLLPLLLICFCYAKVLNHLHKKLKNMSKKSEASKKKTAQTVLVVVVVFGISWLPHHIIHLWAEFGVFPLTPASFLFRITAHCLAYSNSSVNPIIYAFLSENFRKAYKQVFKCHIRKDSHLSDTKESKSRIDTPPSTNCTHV
As to the kind of experiment: inhibition of cAMP synthesis in CHO-K1 cells expressing GalR1 (DiscoverX kit). Type of test: cell-based. Also on record: host or cells: CHO-K1. The settings on record: for Ratio EC50s relative to Gal-(1-15), GalR1 cAMP inhibition: Table 2, variants chemically obtained by base-assisted sulfur extrusion, 'no' wraps to 'activity' = no activity; for cAMP production via GalR1, in words: FIG. 3. As to the method:
(§2) The biological activity of the (lanthi)galanins was determined in CHO-K1 cell lines that express either the GalR1, or GalR2 receptor. Activity measurements were performed using commercial kits from DiscoverX for determining arrestin recruitment (GalR1, GalR2) and inhibition of cAMP synthesis (GalR1). In addition, HEK293 cell lines that express the GalR2 receptor have been used for methods from Molecular Probes to measure calcium efflux (GalR2).
as §1
(§3) Peptide was dissolved in 0.3% ammonia. Peptides were incubated o/n at 37° C. for the introduction of the lanthionine via base assisted sulfur extrusion of the disulfide bridged peptide. […] Different isomers were purified and lyophilized. Dry peptides were dissolved in 100 mM phosphate buffer pH=7.6 and peptides were incubated o/n at 50° C. After HPLC purification peptides with a pE formation were selected and used in the different Galanin receptor activation assays.
Background: Changes in cAMP serve as a functional read-out for many G protein-coupled receptors.

The target in test [3] is T2, GalR1. As for the experimental part:
as §2, §1, §3

Test [4] has as its system Galanin receptor (GalR1, GalR2). The test can be described thus: Galanin receptor activation assays, overall statements in words. The settings on record: overall statement on galanin receptor activation. Type of test: cell-based. As to the method:
as §2
Peptide was dissolved in 0.3% ammonia. Peptides were incubated o/n at 37° C. for the introduction of the lanthionine via base assisted sulfur extrusion of the disulfide bridged peptide. Different isomers could be isolated by HPLC applying the same method as was used as for the biologically produced peptides. Different isomers were purified and lyophilized. Dry peptides were dissolved in 100 mM phosphate buffer pH=7.6 and peptides were incubated o/n at 50° C. After HPLC purification peptides with a pE formation were selected and used in the different Galanin receptor activation assays.

Take `CC(C)C[C@H](NC(=O)[C@H](CC(C)C)NC(=O)[C@H](Cc1ccc(O)cc1)NC(=O)CNC(=O)[C@H](C)NC(=O)[C@H](C)NC(=O)[C@H](CC(N)=O)NC(=O)[C@H](CC(C)C)NC(=O)[C@H](CC(N)=O)NC(=O)[C@H](Cc1c[nH]c2ccccc12)NC(=O)[C@@H]1CCC(=O)N1)C(=O)NCC(=O)N1CCC[C@H]1C(=O)NC1CSCC(C(=O)O)NC(=O)[C@H](C(C)C)NC(=O)[C@H](C)NC1=O` (single isomer, unassigned) [4178 A]: in test [1], the “Ratio EC50s relative to Gal-(1-15), GalR2 Ca efflux” value amounted to 11 and the “Ratio EC50s relative to Gal-(1-15), GalR2 β-Arrestin” value was 137. For the same molecule, in test [2], the “Ratio EC50s relative to Gal-(1-15), GalR1 cAMP inhibition” value is given as “no”. Also, the “Ratio EC50s relative to Gal-(1-15), GalR1 β-Arrestin” value in test [3] is over 1000.

`CC(C)C[C@H](NC(=O)[C@H](CC(C)C)NC(=O)[C@H](Cc1ccc(O)cc1)NC(=O)CNC(=O)[C@H](C)NC(=O)[C@H](C)NC(=O)[C@H](CC(N)=O)NC(=O)[C@H](CC(C)C)NC(=O)[C@H](CC(N)=O)NC(=O)[C@H](Cc1c[nH]c2ccccc12)NC(=O)[C@@H]1CCC(=O)N1)C(=O)NCC(=O)N1CCC[C@H]1C(=O)NC1CSCC(C(=O)O)NC(=O)[C@H](C(C)C)NC(=O)[C@H](C)NC1=O` (single isomer, unassigned) [4178 B]: in test [1], the “Ratio EC50s relative to Gal-(1-15), GalR2 Ca efflux” value worked out at 1.4 and the “Ratio EC50s relative to Gal-(1-15), GalR2 β-Arrestin” value is on record as 2.3. Besides, the “activity, in words” value in test [4] is recorded as “highly active”. Moreover, the “Ratio EC50s relative to Gal-(1-15), GalR1 cAMP inhibition” value in test [2] is recorded as “no”. The “Ratio EC50s relative to Gal-(1-15), GalR1 β-Arrestin” value in test [3] worked out at 39.

In the case of `CC(C)C[C@H](NC(=O)[C@H](CC(C)C)NC(=O)[C@H](Cc1ccc(O)cc1)NC(=O)CNC(=O)[C@H](C)NC(=O)[C@H](C)NC(=O)[C@H](CC(N)=O)NC(=O)[C@H](CC(C)C)NC(=O)[C@H](CC(N)=O)NC(=O)[C@H](Cc1c[nH]c2ccccc12)NC(=O)CN)C(=O)NCC(=O)N[C@@H](C)C(=O)N[C@H]1C(=O)N[C@@H](C)C(=O)N[C@@H](C(C)C)C(=O)N[C@H](C(=O)N[C@@H](CC(N)=O)C(=O)N[C@@H](Cc2c[nH]cn2)C(=O)N[C@@H](CCCNC(=N)N)C(=O)O)CS[C@H]1C` [GalM51], the “cAMP production via GalR1, in words” value in test [2] is given as “inhibit cAMP production via GalR1”. Moreover, in test [3] (FIG. 1), the “β-arrestin recruitment via GalR1, in words” value is “induced β-arrestin recruitment via GalR1”.

With `CC(C)C[C@H](NC(=O)[C@H](CC(C)C)NC(=O)[C@H](Cc1ccc(O)cc1)NC(=O)CNC(=O)[C@H](C)NC(=O)[C@H](C)NC(=O)[C@H](CC(N)=O)NC(=O)[C@H](CC(C)C)NC(=O)[C@H](CC(N)=O)NC(=O)[C@H](Cc1c[nH]c2ccccc12)NC(=O)CN)C(=O)NCC(=O)N1CCC[C@H]1C(=O)N[C@@H](Cc1c[nH]cn1)C(=O)N[C@H]1C(=O)N[C@@H](C(C)C)C(=O)NCC(=O)N[C@H](C(=O)N[C@@H](Cc2c[nH]cn2)C(=O)N[C@@H](CCCNC(=N)N)C(=O)O)CS[C@H]1C` [GalM52], the “cAMP production via GalR1, in words” value in test [2] is reported as “inhibit cAMP production via GalR1”.

Take `CC(C)C[C@@H]1NC(=O)[C@H](CC(C)C)NC(=O)[C@H](Cc2ccc(O)cc2)NC(=O)C(NC(=O)[C@H](C)NC(=O)[C@H](C)NC(=O)[C@H](CC(N)=O)NC(=O)[C@H](CC(C)C)NC(=O)[C@@H](NC(=O)[C@H](Cc2c[nH]c3ccccc23)NC(=O)[C@@H]2CCC(=O)N2)[C@@H](C)O)CSCC(C(=O)O)NC1=O` (single isomer, unassigned) [4179 A, pEWTLNAAlanYLLlan]: the “Ratio EC50s relative to Gal-(1-15), GalR2 Ca efflux” value in test [1] worked out at 94. Moreover, in test [2], the “Ratio EC50s relative to Gal-(1-15), GalR1 cAMP inhibition” value is on record as “no”. For the same molecule, the “Ratio EC50s relative to Gal-(1-15), GalR1 β-Arrestin” value in test [3] (Table 2, variants chemically obtained by base-assisted sulfur extrusion, 'no' wraps to 'activity' = no activity) was “no”.

Turning to `CC(C)C[C@@H]1NC(=O)[C@H](CC(C)C)NC(=O)[C@H](Cc2ccc(O)cc2)NC(=O)C(NC(=O)[C@H](C)NC(=O)[C@H](C)NC(=O)[C@H](CC(N)=O)NC(=O)[C@H](CC(C)C)NC(=O)[C@@H](NC(=O)[C@H](Cc2c[nH]c3ccccc23)NC(=O)[C@@H]2CCC(=O)N2)[C@@H](C)O)CSCC(C(=O)O)NC1=O` (single isomer, unassigned) [4179 B, pEWTLNAAlanYLLlan], in test [1], the “Ratio EC50s relative to Gal-(1-15), GalR2 Ca efflux” value is listed as 2.6 and the “Ratio EC50s relative to Gal-(1-15), GalR2 β-Arrestin” value is 3.8. In test [4], the “activity, in words” value is on record as “high activity”. Moreover, the “Ratio EC50s relative to Gal-(1-15), GalR1 cAMP inhibition” value in test [2] is given as “no”. Further, the “Ratio EC50s relative to Gal-(1-15), GalR1 β-Arrestin” value in test [3] is 720.
